From patent publication US20230382949A1 (HEPTARES THERAPEUTICS LIMITED, priority 2020, published 2023) come the findings set out here.

Starred links: 1 amine or outer side, 2 acyl side, 3 side chain; linkers in the order of their positions; H or OH if unused. Non-standard residues stand in square brackets, D forms with d. Residues, ends and D or L forms follow the SMILES beside them. *: point of attachment. Ala(piperidin-4-yl) = O=C([C@H](CC1CCN([*:3])CC1)N[*:1])[*:2]; Malonyl(2,2-Me2,histaminyl) = CC(C)(C(=O)NCCc1cnc[nH]1)C(=O)*; dBip = N[C@H](Cc1ccc(-c2ccccc2)cc1)C(=O)O; Oic = O=C(O)[C@@H]1C[C@@H]2CCCC[C@@H]2N1; Phe(4-Br) = N[C@@H](Cc1ccc(Br)cc1)C(=O)O; X1 = CC(C)(C(=O)NCCc1ccccc1)C(=O)*; hArg = N=C(N)NCCCC[C@H](N)C(=O)O; Aib = CC(C)(N)C(=O)O

Test [1] deals with T1, human Apelin receptor (Homo sapiens, UniProt P35414).
T1 construct: host or cells: CHO-K1 cells
Put plainly: β-arrestin accumulation assay, functional agonism of human Apelin receptors. The class given is cell-based. On the procedure: β-arrestin assay. […] After 16 h incubation at 37° C. media was removed and cells were incubated at 37° C. for 90 min in serum free media containing increasing concentrations of test agonist. The assay reaction was stopped by adding detection reagent (DiscoveRx) and incubation for 60 min in the dark. Levels of receptor activation were then measured on a PheraStar fluorescence plate reader (BMG LabTech) and EC50 values were determined using Graphpad Prism.
T1 sequence (P32121 whole entry partner, one chain of several): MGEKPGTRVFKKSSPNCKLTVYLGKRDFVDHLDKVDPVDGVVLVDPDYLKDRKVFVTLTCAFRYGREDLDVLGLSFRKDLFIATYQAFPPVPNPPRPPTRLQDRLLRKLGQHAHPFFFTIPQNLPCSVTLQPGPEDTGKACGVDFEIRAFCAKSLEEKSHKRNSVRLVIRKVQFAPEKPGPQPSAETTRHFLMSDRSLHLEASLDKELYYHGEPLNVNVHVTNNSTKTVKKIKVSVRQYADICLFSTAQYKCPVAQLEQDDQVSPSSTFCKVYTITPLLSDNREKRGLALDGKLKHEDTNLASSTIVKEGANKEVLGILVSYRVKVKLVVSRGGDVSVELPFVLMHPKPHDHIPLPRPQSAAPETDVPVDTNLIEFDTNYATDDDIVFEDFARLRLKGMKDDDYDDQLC

For test [2], the target named is T2, human Apelin receptor (Homo sapiens, UniProt P35414).
T2 sequence (P35414 1-380): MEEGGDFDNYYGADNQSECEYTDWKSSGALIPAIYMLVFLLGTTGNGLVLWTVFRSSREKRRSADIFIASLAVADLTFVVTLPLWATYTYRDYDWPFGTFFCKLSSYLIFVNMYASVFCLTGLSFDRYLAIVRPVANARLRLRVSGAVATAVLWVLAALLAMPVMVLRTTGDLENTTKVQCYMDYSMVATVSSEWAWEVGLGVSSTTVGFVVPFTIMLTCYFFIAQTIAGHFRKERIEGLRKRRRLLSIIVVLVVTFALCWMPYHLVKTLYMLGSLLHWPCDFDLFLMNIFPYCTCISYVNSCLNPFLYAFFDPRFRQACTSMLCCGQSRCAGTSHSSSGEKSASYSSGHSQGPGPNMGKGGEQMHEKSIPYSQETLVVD
Put plainly: cAMP accumulation assay (HTRF), functional agonism of human Apelin receptors. As to conditions: CHO cells stably expressing the human Apelin receptor, 3 uM forskolin; for Emax: Human Apelin agonist cAMP assay; for EC50: pEC50, Human Apelin agonist cAMP assay. The test is classed as cell-based. The text has this:
cAMP functional assay. cAMP production was quantified using the Homogeneous Time-Resolved Fluorescence (HTRF) cAMP dynamic-2 assay (Cisbio, France).

Regarding `CC(C)C[C@H](NC(=O)[C@@H](CCCNC(=N)N)NC(=O)C1C2CC2CN1C(=O)[C@H](CCCCNC(=N)N)NC(=O)[C@H](CCC(N)=O)NC(=O)[C@@H](CCCNC(=N)N)NC(=O)C(C)(C)C(=O)NCCc1c[nH]cn1)C(=O)NC(C)(C)C(=O)N[C@@H](Cc1c[nH]cn1)C(=O)N[C@@H](CC1CCNCC1)C(=O)NCC(=O)N1[C@H](C(=O)N[C@@H](Cc2ccc(Br)cc2)C(=O)N2CCC[C@H]2C(=O)N[C@H](Cc2ccc(-c3ccccc3)cc2)C(=O)O)C[C@@H]2CCCC[C@@H]21` (single isomer, unassigned) [37 Isomer 1], the EC50 was more than 100000 nM on human Apelin receptor [1] and 10 nM on human Apelin receptor [2]. For the same compound, at human Apelin receptor [2] (CHO), the Emax turned out to be 68.6%.

In the case of `CC(C)C[C@H](NC(=O)[C@@H](CCCNC(=N)N)NC(=O)C1C2CC2CN1C(=O)[C@H](CCCCNC(=N)N)NC(=O)[C@H](CCC(N)=O)NC(=O)[C@@H](CCCNC(=N)N)NC(=O)C(C)(C)C(=O)NCCc1c[nH]cn1)C(=O)NC(C)(C)C(=O)N[C@@H](Cc1c[nH]cn1)C(=O)N[C@@H](CC1CCNCC1)C(=O)NCC(=O)N1[C@H](C(=O)N[C@@H](Cc2ccc(Br)cc2)C(=O)N2CCC[C@H]2C(=O)N[C@H](Cc2ccc(-c3ccccc3)cc2)C(=O)O)C[C@@H]2CCCC[C@@H]21` (single isomer, unassigned) [37 Isomer 2], the “Human Apelin agonist β-arrestin assay pEC50” value on human Apelin receptor [1] (CHO-K1 cells overexpressing human Apelin receptor and β-arrestin, 90 min) is on record as less than 4. In addition, at human Apelin receptor [2], the Emax was 68.9 and the response was half-maximal at 5.01 nM (EC50).

Turning to `CC(C)C[C@H](NC(=O)[C@@H](CCCNC(=N)N)NC(=O)[C@@H]1CCCN1C(=O)[C@H](CCCCNC(=N)N)NC(=O)[C@H](CCC(N)=O)NC(=O)[C@@H](CCCNC(=N)N)NC(=O)C(C)(C)C(=O)NCCc1cnc[nH]1)C(=O)N[C@H](C)C(=O)N[C@@H](Cc1c[nH]cn1)C(=O)N[C@@H](CC1CCNCC1)C(=O)NCC(=O)N1[C@H](C(=O)N[C@@H](Cc2ccc(Br)cc2)C(=O)N2CCC[C@H]2C(=O)N[C@H](Cc2ccc(-c3ccccc3)cc2)C(=O)O)C[C@@H]2CCCC[C@@H]21` [Example 1] ({Malonyl(2,2-Me2,histaminyl)}-[dR]Q[hArg]P[dR]L[dA]H[Ala(piperidin-4-yl)]G[Oic][Phe(4-Br)]P[dBip]-OH), the EC50 at human Apelin receptor [1] is more than 10000 nM; on human Apelin receptor [2], 15.8 nM. On human Apelin receptor [2] (CHO), this compound yielded an Emax of 27.2%.

In the case of `CC(C)C[C@H](NC(=O)[C@@H](CCCNC(=N)N)NC(=O)[C@@H]1CCCN1C(=O)[C@H](CCCCNC(=N)N)NC(=O)[C@H](CCC(N)=O)NC(=O)[C@@H](CCCNC(=N)N)NC(=O)C(C)(C)C(=O)NCCc1cnc[nH]1)C(=O)NC(C)(C)C(=O)N[C@@H](Cc1c[nH]cn1)C(=O)N[C@@H](CC1CCNCC1)C(=O)NCC(=O)N1[C@H](C(=O)N[C@@H](Cc2ccc(Br)cc2)C(=O)N2CCC[C@H]2C(=O)N[C@H](Cc2ccc(-c3ccccc3)cc2)C(=O)O)C[C@@H]2CCCC[C@@H]21` [Example 2] ({Malonyl(2,2-Me2,histaminyl)}-[dR]Q[hArg]P[dR]L[Aib]H[Ala(piperidin-4-yl)]G[Oic][Phe(4-Br)]P[dBip]-OH), the EC50 was more than 10000 nM on human Apelin receptor [1] and 20 nM at human Apelin receptor [2]. Further, at human Apelin receptor [2] (CHO), the Emax was 50.8%.

For the compound `CC(C)C[C@H](NC(=O)[C@@H](CCCNC(=N)N)NC(=O)[C@@H]1CCCN1C(=O)[C@H](CCCCNC(=N)N)NC(=O)[C@H](CCC(N)=O)NC(=O)[C@@H](CCCNC(=N)N)NC(=O)C(C)(C)C(=O)NCCc1ccccc1)C(=O)NC(C)(C)C(=O)N[C@@H](Cc1c[nH]cn1)C(=O)N[C@@H](CC1CCNCC1)C(=O)NCC(=O)N1[C@H](C(=O)N[C@@H](Cc2ccc(Br)cc2)C(=O)N2CCC[C@H]2C(=O)N[C@H](Cc2ccc(-c3ccccc3)cc2)C(=O)O)C[C@@H]2CCCC[C@@H]21` [Example 5] (X1-[dR]Q[hArg]P[dR]L[Aib]H[Ala(piperidin-4-yl)]G[Oic][Phe(4-Br)]P[dBip]-OH), the EC50 on human Apelin receptor [1] was more than 10000 nM; at human Apelin receptor [2], 15.8 nM. Further, at human Apelin receptor [2] (CHO), the Emax worked out at 47.2%.

On to Apelin [reference compound], for which the “Human Apelin agonist β-arrestin assay Emax” value at human Apelin receptor [1] (CHO-K1 cells overexpressing human Apelin receptor and β-arrestin, Emax only reported for active compounds) was 165.8.
